# Columns and labels:
# [1] = test system: BE-M17 human neuroblastoma cells overexpressing A53T α-synuclein; assay: Thioflavin S aggregation assay in rotenone-treated cells; format: cell-based; conditions: 500 nM, 1 μM or 5 μM rotenone (FIGS. 4A-E)
# Text: (§1) Therefore, to test the therapeutic potential of the compounds, two cell-based assays were utilized. In both assays, rotenone is used to induce mitochondrial oxidative stress and α-synuclein aggregation. The first assay utilizes the binding of the fluorescent dye thioflavin S to structures with high β-sheet content including α-synuclein fibrils. Therefore, quantitative assessment of the extent of thioflavin S-positive staining of fixed cells is used to test the ability of the compounds to decrease the amount of α-synuclein aggregates. In the second assay, cell viability is assessed using the XTT Cytotoxicity assay, which is dependent on intact, functional mitochondria in live cells. Thus, the XTT Cytotoxicity assay is used to test the ability of the compounds to ameliorate the mitochondrial toxicity and resulting loss of viability associated with the accumulation of α-synuclein aggregates. Phrased another way, the XTT Cytotoxicity assay is used to gauge the compounds neuroprotective efficacy. These studies are presented in the following examples.
# (§2) BE-M17 human neuroblastoma cells stably transfected with A53T-mutant human α-synuclein were obtained. Cell culture reagents were obtained from Gibco/Invitrogen, and cells were grown in OPTIMEM supplemented with 10% FBS, Penicillin (100 units/mil)-Streptomycin (100 μg/ml) and 500 μg/ml G418 as previously described (Ostrerova-Golts et al., J. Neurosci., 20:6048-6054, 2000).
# Thioflavin S is commonly used to detect amyloid-containing structures in situ, including in brain tissue (Vallet et al., Acta Neuropathol., 83:170-178, 1992), and cultured cells (Ostrerova-Golts et al., J. Neurosci., 20:6048-6054, 2000), whereas thioflavin T is often used as an in vitro reagent to analyze the aggregation of soluble amyloid proteins into fibrils enriched in β-pleated sheet structures (LeVine III, Prot. Sci., 2:404-410, 1993). Therefore, Thioflavin S histochemistry was used on cultured cells to detect aggregates containing a high degree of […] structures that formed in response to oxidative stress-inducing agents (in this case rotenone) as previously described, with minor modifications (Ostrerova-Golts et al., J. Neurosci, 20:6048-6054, 2000). Briefly, for these studies, cells were grown on Poly-D-Lysine coated glass slide chambers at approximately 3×10^4 cells/cm^2. After 24 hours, cells were treated with 500 nM, 1 μM or 5 μM rotenone (Sigma) or vehicle (0.05% DMSO) as indicated. Immediately after rotenone (or vehicle) addition, compounds were added at the indicated concentration, or cell culture media only (no compound) in the presence of rotenone was added. Identical treatments were repeated after 48 hours. After an additional 48 hours, cells were fixed for 25 minutes in 3% paraformaldehyde. After a PBS wash, the cells were incubated with 0.015% thioflavin S in 50% ethanol for 25 minutes, washed twice for four minutes in 50% ethanol and twice for five minutes in deionized water and then mounted using an aqueous-based mountant designed to protect against photobleaching. Aggregates that bind to thioflavin S were detected with a fluorescent microscope using a High Q FITC filter set (480 to 535 nm bandwidth) and a 20× objective lens unless otherwise indicated. Between 8 and 16 representative images per condition were selected, imaged and processed by an experimenter who was blinded to treatment conditions. To assess the amount of thioflavin S-positive aggregates, the total area per field covered by thioflavin S-positive inclusions was determined. […] Spurious, non-cell associated fluorescence was manually removed. Unless indicated otherwise, data represent group means ±SEM. Statistical analyses were performed with GraphPad Prism (GraphPad Inc). Differences between means (two samples) were assessed by the […]. Differences among multiple means were assessed by one-factor ANOVA followed by Tukey's multiple comparison test.
# [2] = test system: A53T α-synuclein-expressing BE-M17 cells; assay: XTT Cytotoxicity assay - protection against rotenone-induced cytotoxicity; format: cell-based; conditions: 40-44 hours
# Text: as §1, §2
# Research has shown that the accumulation of α-synuclein fibrils in Lewy bodies contributes mechanistically to the degradation of neurons in Parkinson's disease and related disorders (Polymeropoulos et al., Science 276:2045-2047, 1997; Kruger et al., Nature Genet. 18:106-108, 1998). Here, the XTT Cytotoxicity assay (hereafter referred to as the XTT assay) was used to measure the ability of test compounds to protect against rotenone-induced cytotoxicity (neuroprotective ability). The assay is based on the principle that conversion of the yellow tetrazolium salt XTT to form an orange formazan dye (that absorbs light around 490 nm) occurs only in metabolically active, viable cells. Therefore, light absorbance at 490 nm is proportional to cell viability. For this assay, cells were plated in 96 well tissue culture dishes at 10^4 cells per well. After 24 hours, cells were treated with 500 nM or 2 μM rotenone, or vehicle (0.05% DMSO) as indicated. Immediately after rotenone addition, compounds were added at the indicated concentration. […] Untreated cells received cell culture media only (no compound, with or without rotenone). After 40-44 hours of treatment, conditioned media was removed and replaced with 100 μl fresh media and 50 μl XTT labeling reaction mixture according to the manufacturer's recommendations. Four to five hours later, the absorbance at 490 nm was measured and corrected for absorbance at the 700 nm reference wavelength. […] Percent inhibition of cell death was calculated as the proportion of the rotenone-induced absorbance (viability) decrease that was eliminated by test compound treatment.
structure (smiles),measurement,setting,value
"C=C(C)[C@H]1Cc2c(ccc3c2O[C@@H]2COc4cc(OC)c(OC)cc4[C@@H]2C3=O)O1 [rotenone, reference compound]",thioflavin S-positive aggregates relative to vehicle-treated control cells,[1],dose-dependent increase in thioflavin S-positive aggregates
same,decrease of viability relative to untreated cells,[2]; 500 nM rotenone,30-40%
same,decrease of viability relative to untreated cells,[2]; 2 μM rotenone,40-50%

# From US20070276034A1, “Compounds, compositions and methods for the treatment of synucleinopathies” (priority 2002, published 2007)
